This is an account of results in patent US11987586B1 (TAKEDA PHARMACEUTICAL COMPANY LIMITED, priority 2022, dated 2024).

Each structure is given as a SMILES string.

This test deals with T1, human OX2 receptor (Homo sapiens, UniProt O43614).
T1 construct: expressed in transfected cells
T1 sequence (O43614 1-444): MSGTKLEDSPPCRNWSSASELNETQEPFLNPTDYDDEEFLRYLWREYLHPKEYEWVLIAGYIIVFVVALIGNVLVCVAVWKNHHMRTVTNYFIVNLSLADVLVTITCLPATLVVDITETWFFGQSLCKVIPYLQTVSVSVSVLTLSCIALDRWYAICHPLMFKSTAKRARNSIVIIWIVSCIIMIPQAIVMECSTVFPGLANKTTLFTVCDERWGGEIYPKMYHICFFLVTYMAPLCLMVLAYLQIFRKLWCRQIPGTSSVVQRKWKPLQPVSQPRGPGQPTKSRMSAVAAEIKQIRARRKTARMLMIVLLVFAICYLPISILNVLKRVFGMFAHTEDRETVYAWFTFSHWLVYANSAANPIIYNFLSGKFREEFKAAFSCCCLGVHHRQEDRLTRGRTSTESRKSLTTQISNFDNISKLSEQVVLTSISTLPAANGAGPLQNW
Nature of the test: Measurement of orexin type 2 receptor agonist activity (calcium fluorescence, Fluo-4, FDSS). Conditions: 3 uM test compound; CHO cells expressing human OX2 receptor; DMSO = 0%, 10 nM orexin A (human) = 100%. Format: cell-based. An outline of the steps:
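Agonist activity (%) was normalised to the response to 10 nM final human orexin A (100%) and to the DMSO vehicle (0%). The response was measured as the Fluo-4 calcium signal, read kinetically over 1 min 40 s after compound addition to Fluo-4/probenecid-loaded stable CHO-K1 clones expressing human OX2 (aa 1-444).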
For `CCS(=O)(=O)N[C@H]1Cc2cn(-c3cnc4cccc(-c5c(F)cccc5F)n34)c(=O)n2C1` [Example 37, N-{(6S)-2-[5-(2,6-difluorophenyl)imidazo[1,2-a]pyridin-3-yl]-3-oxo-2,5,6,7-tetrahydro-3H-pyrrolo[1,2-c]imidazol-6-yl}ethanesulfonamide], the “OX2R agonist activity (3 uM, %)” value worked out at 101%. `CCOc1cc2onc(N3CC[C@H]4N(C[C@@H](NS(C)(=O)=O)C4(F)F)C3=O)c2c(-c2c(F)cc(F)cc2F)c1F` [Example 202, N-{(4aR,6R)-2-[6-ethoxy-5-fluoro-4-(2,4,6-trifluorophenyl)-1,2-benzoxazol-3-yl]-5,5-difluoro-1-oxooctahydropyrrolo[1,2-c]pyrimidin-6-yl}methanesulfonamide]: the “OX2R agonist activity (3 uM, %)” value worked out at 99%.

`CCS(=O)(=O)N[C@@H]1CN2C(=O)N(c3noc4cccc(-c5ccc(F)cc5C)c34)CC[C@@H]2C1(F)F` [Example 323, N-{(4aR,6R)-5,5-difluoro-2-[4-(4-fluoro-2-methylphenyl)-1,2-benzoxazol-3-yl]-1-oxooctahydropyrrolo[1,2-c]pyrimidin-6-yl}ethanesulfonamide]: the “OX2R agonist activity (3 uM, %)” value is reported as 97%.

Regarding `CS(=O)(=O)N[C@@H]1CN2C(=O)N(c3noc4cccc(-c5c(F)cccc5F)c34)CC[C@@H]2C1(F)F` [Example 206, N-{(4aR,6R)-2-[4-(2,6-difluorophenyl)-1,2-benzoxazol-3-yl]-5,5-difluoro-1-oxooctahydropyrrolo[1,2-c]pyrimidin-6-yl}methanesulfonamide], the “OX2R agonist activity (3 uM, %)” value worked out at 110%. For `Cc1cc(-c2c(F)cc(F)cc2F)c2c(-n3cc4n(c3=O)C[C@@H](NS(C)(=O)=O)C4(F)F)noc2c1` [Example 127, N-{(6R)-7,7-difluoro-2-[6-methyl-4-(2,4,6-trifluorophenyl)-1,2-benzoxazol-3-yl]-3-oxo-2,5,6,7-tetrahydro-3H-pyrrolo[1,2-c]imidazol-6-yl}methanesulfonamide], the “OX2R agonist activity (3 uM, %)” value worked out at 102%. Consider `CCOc1cc(-c2c(F)cccc2F)c2c(N3C[C@H]4N(C[C@@H](NS(C)(=O)=O)C4(F)F)C3=O)noc2c1` [Example 145, N-{(6R,7aR)-2-[4-(2,6-difluorophenyl)-6-ethoxy-1,2-benzoxazol-3-yl]-7,7-difluoro-3-oxohexahydro-1H-pyrrolo[1,2-c]imidazol-6-yl}methanesulfonamide], for which the “OX2R agonist activity (3 uM, %)” value is given as 105%.

In the case of `CCOc1cc(-c2c(F)cccc2F)c2c(-n3cc4n(c3=O)C[C@@H](NS(C)(=O)=O)C4(F)F)noc2c1` [Example 194, N-{(6R)-2-[4-(2,6-difluorophenyl)-6-ethoxy-1,2-benzoxazol-3-yl]-7,7-difluoro-3-oxo-2,5,6,7-tetrahydro-3H-pyrrolo[1,2-c]imidazol-6-yl}methanesulfonamide], the “OX2R agonist activity (3 uM, %)” value came to 92%.

In the case of `Cn1nc(-n2cc3n(c2=O)C[C@@H](NS(C)(=O)=O)C3)c2c(-c3c(F)cccc3F)cccc21` [Example 103, N-{(6S)-2-[4-(2,6-difluorophenyl)-1-methyl-1H-indazol-3-yl]-3-oxo-2,5,6,7-tetrahydro-3H-pyrrolo[1,2-c]imidazol-6-yl}methanesulfonamide], the “OX2R agonist activity (3 uM, %)” value was 106%. The same measure for `CCS(=O)(=O)N[C@@H]1CN2C(=O)N(c3noc4cc(F)cc(-c5c(F)cccc5F)c34)CC[C@@H]2C1(F)F` [Example 247, N-{(4aR,6R)-2-[4-(2,6-difluorophenyl)-6-fluoro-1,2-benzoxazol-3-yl]-5,5-difluoro-1-oxooctahydropyrrolo[1,2-c]pyrimidin-6-yl}ethanesulfonamide]: 101%; for `CCS(=O)(=O)N[C@H]1Cc2cn(-c3c(C)nn4cccc(-c5c(F)cccc5F)c34)c(=O)n2C1` [Example 85, N-{(6S)-2-[4-(2,6-difluorophenyl)-2-methylpyrazolo[1,5-a]pyridin-3-yl]-3-oxo-2,5,6,7-tetrahydro-3H-pyrrolo[1,2-c]imidazol-6-yl}ethanesulfonamide]: 95%.

Take `CS(=O)(=O)NC1Cn2c(cn(-c3noc4ccc(F)c(-c5c(F)cc(F)cc5F)c34)c2=O)CC1(F)F` (single isomer, unassigned) [Example 231, N-{(6R*)-7,7-difluoro-2-[5-fluoro-4-(2,4,6-trifluorophenyl)-1,2-benzoxazol-3-yl]-3-oxo-2,3,5,6,7,8-hexahydroimidazo[1,5-a]pyridin-6-yl}methanesulfonamide]: the “OX2R agonist activity (3 uM, %)” value came to 103%. `CS(=O)(=O)N[C@@H]1CN2C(=O)N(c3noc4cc(C(F)F)cc(-c5c(F)cc(F)cc5F)c34)C[C@@H]2C1(F)F` [Example 274, N-{(6R,7aR)-2-[6-(difluoromethyl)-4-(2,4,6-trifluorophenyl)-1,2-benzoxazol-3-yl]-7,7-difluoro-3-oxohexahydro-1H-pyrrolo[1,2-c]imidazol-6-yl}methanesulfonamide]: the “OX2R agonist activity (3 uM, %)” value is on record as 102%.

Regarding `CNS(=O)(=O)N[C@@H]1Cn2c(cn(-c3noc4cc(C)nc(-c5c(F)cc(F)cc5F)c34)c2=O)C1(F)F` [Example 257, N-{(6R)-7,7-difluoro-2-[6-methyl-4-(2,4,6-trifluorophenyl)[1,2]oxazolo[4,5-c]pyridin-3-yl]-3-oxo-2,5,6,7-tetrahydro-3H-pyrrolo[1,2-c]imidazol-6-yl}-N′-methylsulfuric diamide], the “OX2R agonist activity (3 uM, %)” value is on record as 110%. For the molecule `CCS(=O)(=O)N[C@H]1C[C@H]2CN(c3noc4cccc(-c5c(F)cc(F)cc5F)c34)C(=O)N2C1` [Example 65, N-{(6S,7aS)-3-oxo-2-[4-(2,4,6-trifluorophenyl)-1,2-benzoxazol-3-yl]hexahydro-1H-pyrrolo[1,2-c]imidazol-6-yl}ethanesulfonamide], the “OX2R agonist activity (3 uM, %)” value came to 99%. In the case of `CCc1cc(-c2c(F)cc(F)cc2F)c2c(-n3cc4n(c3=O)C[C@@H](NS(C)(=O)=O)C4(F)F)noc2n1` [Example 230, N-{(6R)-2-[6-ethyl-4-(2,4,6-trifluorophenyl)[1,2]oxazolo[5,4-b]pyridin-3-yl]-7,7-difluoro-3-oxo-2,5,6,7-tetrahydro-3H-pyrrolo[1,2-c]imidazol-6-yl}methanesulfonamide], the “OX2R agonist activity (3 uM, %)” value came out at 111%. Take `O=C1N(c2noc3cc(F)cc(-c4ncc(F)cc4F)c23)CC[C@H]2N1C[C@@H](NS(=O)(=O)C1CC1)C2(F)F` [Example 318, N-{(4aR,6R)-2-[4-(3,5-difluoropyridin-2-yl)-6-fluoro-1,2-benzoxazol-3-yl]-5,5-difluoro-1-oxooctahydropyrrolo[1,2-c]pyrimidin-6-yl}cyclopropanesulfonamide]: the “OX2R agonist activity (3 uM, %)” value is 105%. Then `CCS(=O)(=O)N[C@H]1C[C@@H]2CN(c3noc4cccc(-c5c(F)cccc5F)c34)C(=O)N2C1` [Example 49, N-{(6S, 7aR)-2-[4-(2,6-difluorophenyl)-1,2-benzoxazol-3-yl]-3-oxohexahydro-1H-pyrrolo[1,2-c]imidazol-6-yl}ethanesulfonamide], with 94%.

For the molecule `O=C1N(c2noc3cccc(-c4c(F)cccc4F)c23)C[C@H]2N1C[C@@H](NS(=O)(=O)C1CC1)C2(F)F` [Example 89, N-{(6R,7aR)-2-[4-(2,6-difluorophenyl)-1,2-benzoxazol-3-yl]-7,7-difluoro-3-oxohexahydro-1H-pyrrolo[1,2-c]imidazol-6-yl}cyclopropanesulfonamide], the “OX2R agonist activity (3 uM, %)” value stood at 95%.

For the molecule `COCc1cc(-c2c(F)cccc2F)c2c(N3CC[C@H]4N(C[C@@H](NS(C)(=O)=O)C4(F)F)C3=O)noc2c1` [Example 215, N-{(4aR,6R)-2-[4-(2,6-difluorophenyl)-6-(methoxymethyl)-1,2-benzoxazol-3-yl]-5,5-difluoro-1-oxooctahydropyrrolo[1,2-c]pyrimidin-6-yl}methanesulfonamide], the “OX2R agonist activity (3 uM, %)” value was 99%. Regarding `CCS(=O)(=O)N[C@@H]1Cn2c(cn(-c3noc4cc(Cl)cc(-c5c(F)cccc5F)c34)c2=O)C1(F)F` [Example 68, N-{(6R)-2-[6-chloro-4-(2,6-difluorophenyl)-1,2-benzoxazol-3-yl]-7,7-difluoro-3-oxo-2,5,6,7-tetrahydro-3H-pyrrolo[1,2-c]imidazol-6-yl}ethanesulfonamide], the “OX2R agonist activity (3 uM, %)” value was determined as 109%.

As for `CCS(=O)(=O)NC1Cn2c(C)c(-c3noc4cccc(-c5c(F)cccc5F)c34)c(=O)n2C1` (single isomer, unassigned) [Example 336, N-{(2R*)-6-[4-(2,6-difluorophenyl)-1,2-benzoxazol-3-yl]-7-methyl-5-oxo-2,3-dihydro-1H,5H-pyrazolo[1,2-a]pyrazol-2-yl}ethanesulfonamide], the “OX2R agonist activity (3 uM, %)” value is on record as 98%. As for `CCS(=O)(=O)N[C@@H]1CN2C(=O)N(c3noc4cccc(-c5ncc(F)cc5C)c34)CC[C@@H]2C1(F)F` [Example 335, N-{(4aR,6R)-5,5-difluoro-2-[4-(5-fluoro-3-methylpyridin-2-yl)-1,2-benzoxazol-3-yl]-1-oxooctahydropyrrolo[1,2-c]pyrimidin-6-yl}ethanesulfonamide], the “OX2R agonist activity (3 uM, %)” value came out at 101%. Then `O=C1N(c2noc3cccc(-c4c(F)cccc4F)c23)C[C@@H]2C[C@H](NS(=O)(=O)C(F)F)CN12` [Example 43, N-{(6S,7aS)-2-[4-(2,6-difluorophenyl)-1,2-benzoxazol-3-yl]-3-oxohexahydro-1H-pyrrolo[1,2-c]imidazol-6-yl}-1,1-difluoromethanesulfonamide], with 100%.
